Assay results published in US12532661B2, “Compound and organic light emitting device comprising the same” (LG Chem, Ltd., priority 2020, dated 2026).

Experiment: Solubility experiment in cyclohexanone (CHON)
Format: physicochemical
Conditions: normal temperature/pressure, whether 0.1 wt % or more was dissolved
Description: In order to confirm the solubility in the solvent used in the solution process of the compounds prepared in the Preparation Examples and the comparative compounds, each of them was dissolved in the solvent cyclohexanone (CHON) under normal temperature/pressure conditions, and it was confirmed whether 0.1 wt % or more was dissolved.

| Structure (SMILES) | Solubility, Solvent CHON |
| --- | --- |
| Cc1cccc(N(c2ccc3c4c5ccc6c(c5ccc4n(-c4ccccc4)c3c2)c2ccc(N(c3ccc4c5c7ccc8c(c7ccc5n(-c5ccccc5)c4c3)c3ccc(N(c4cccc(C)c4)c4cccc5c4oc4ccccc45)cc3n8-c3ccccc3)c3ccc4c5c7ccc8c(c7ccc5n(-c5ccccc5)c4c3)c3ccc(N(c4cccc(C)c4)c4cccc5c4oc4ccccc45)cc3n8-c3ccccc3)cc2n6-c2ccccc2)c2cccc3c2oc2ccccc23)c1 [Compound 1] | ○ (Evaluation list (○): 0.1 wt. % or more soluble) |
| c1ccc(-n2c3ccccc3c3cc(-c4ccc(N(c5ccc6ccccc6c5)c5ccc6c7c8ccc9c(c8ccc7n(-c7ccccc7)c6c5)c5ccc(N(c6ccc7c8c%10ccc%11c(c%10ccc8n(-c8ccccc8)c7c6)c6ccc(N(c7ccc(-c8ccc%10c(c8)c8ccccc8n%10-c8ccccc8)cc7)c7ccc8ccccc8c7)cc6n%11-c6ccccc6)c6ccc7c8c%10ccc%11c(c%10ccc8n(-c8ccccc8)c7c6)c6ccc(N(c7ccc(-c8ccc%10c(c8)c8ccccc8n%10-c8ccccc8)cc7)c7ccc8ccccc8c7)cc6n%11-c6ccccc6)cc5n9-c5ccccc5)cc4)ccc32)cc1 [Compound 3] | ○ (Evaluation list (○): 0.1 wt. % or more soluble) |
| Cc1cccc(N(c2ccc3c4c5ccc6c(c5ccc4n(-c4ccccc4)c3c2)c2ccc(-c3cc(-c4ccc5c7c8ccc9c(c8ccc7n(-c7ccccc7)c5c4)c4ccc(N(c5cccc(C)c5)c5cccc7c5oc5ccccc57)cc4n9-c4ccccc4)cc(-c4ccc5c7c8ccc9c(c8ccc7n(-c7ccccc7)c5c4)c4ccc(N(c5cccc(C)c5)c5cccc7c5oc5ccccc57)cc4n9-c4ccccc4)c3)cc2n6-c2ccccc2)c2cccc3c2oc2ccccc23)c1 [Compound 4] | ○ (Evaluation list (○): 0.1 wt. % or more soluble) |
| CC(C)(C)c1ccc(N(c2ccc(C(C)(C)C)cc2)c2ccc3c4c5ccc6c(c5ccc4n(-c4ccccc4)c3c2)c2ccc(-c3cc(-c4ccc5c7c8ccc9c(c8ccc7n(-c7ccccc7)c5c4)c4ccc(N(c5ccc(C(C)(C)C)cc5)c5ccc(C(C)(C)C)cc5)cc4n9-c4ccccc4)cc(-c4ccc5c7c8ccc9c(c8ccc7n(-c7ccccc7)c5c4)c4ccc(N(c5ccc(C(C)(C)C)cc5)c5ccc(C(C)(C)C)cc5)cc4n9-c4ccccc4)c3)cc2n6-c2ccccc2)cc1 [Compound 5] | ○ (Evaluation list (○): 0.1 wt. % or more soluble) |
| CC(C)(C)c1ccc(N(c2ccc(C(C)(C)C)cc2)c2ccc3c4c5ccc6c(c5ccc4n(-c4ccccc4)c3c2)c2ccc(N(c3ccc(C(C)(C)C)cc3)c3cc(N(c4ccc(C(C)(C)C)cc4)c4ccc5c7c8ccc9c(c8ccc7n(-c7ccccc7)c5c4)c4ccc(N(c5ccc(C(C)(C)C)cc5)c5ccc(C(C)(C)C)cc5)cc4n9-c4ccccc4)cc(N(c4ccc(C(C)(C)C)cc4)c4ccc5c7c8ccc9c(c8ccc7n(-c7ccccc7)c5c4)c4ccc(N(c5ccc(C(C)(C)C)cc5)c5ccc(C(C)(C)C)cc5)cc4n9-c4ccccc4)c3)cc2n6-c2ccccc2)cc1 [Compound 12] | ○ (Evaluation list (○): 0.1 wt. % or more soluble) |
| Cc1cccc(N(c2ccc3c4c5ccc6c(c5ccc4n(-c4ccccc4)c3c2)c2ccc(Oc3cc(Oc4ccc5c7c8ccc9c(c8ccc7n(-c7ccccc7)c5c4)c4ccc(N(c5cccc(C)c5)c5cccc7c5oc5ccccc57)cc4n9-c4ccccc4)cc(Oc4ccc5c7c8ccc9c(c8ccc7n(-c7ccccc7)c5c4)c4ccc(N(c5cccc(C)c5)c5cccc7c5oc5ccccc57)cc4n9-c4ccccc4)c3)cc2n6-c2ccccc2)c2cccc3c2oc2ccccc23)c1 [Compound 14] | ○ (Evaluation list (○): 0.1 wt. % or more soluble) |
| Cc1cccc(N(c2ccc3c4c5ccc6c(c5ccc4n(-c4ccccc4)c3c2)c2ccc(Oc3cccc(-c4cc(-c5cccc(Oc7ccc8c9c%10ccc%11c(c%10ccc9n(-c9ccccc9)c8c7)c7ccc(N(c8cccc(C)c8)c8cccc9c8oc8ccccc89)cc7n%11-c7ccccc7)c5)cc(-c5cccc(Oc7ccc8c9c%10ccc%11c(c%10ccc9n(-c9ccccc9)c8c7)c7ccc(N(c8cccc(C)c8)c8cccc9c8oc8ccccc89)cc7n%11-c7ccccc7)c5)c4)c3)cc2n6-c2ccccc2)c2cccc3c2oc2ccccc23)c1 [Compound 15] | ○ (Evaluation list (○): 0.1 wt. % or more soluble) |
| Cc1cccc(N(c2ccc3c4c5ccc6c(c5ccc4n(-c4ccccc4)c3c2)c2ccc(Oc3ccc(-c4cc(-c5ccc(Oc7ccc8c9c%10ccc%11c(c%10ccc9n(-c9ccccc9)c8c7)c7ccc(N(c8cccc(C)c8)c8cccc9c8oc8ccccc89)cc7n%11-c7ccccc7)cc5)cc(-c5ccc(Oc7ccc8c9c%10ccc%11c(c%10ccc9n(-c9ccccc9)c8c7)c7ccc(N(c8cccc(C)c8)c8cccc9c8oc8ccccc89)cc7n%11-c7ccccc7)cc5)c4)cc3)cc2n6-c2ccccc2)c2cccc3c2oc2ccccc23)c1 [Compound 16] | ○ (Evaluation list (○): 0.1 wt. % or more soluble) |
| Cc1cccc(N(c2ccc3c(c2)c2c4ccc5c(c4ccc2n3-c2ccccc2)c2cc(N(c3ccc4c(c3)c3c6ccc7c(c6ccc3n4-c3ccccc3)c3cc(N(c4cccc(C)c4)c4cccc6c4oc4ccccc46)ccc3n7-c3ccccc3)c3ccc4c(c3)c3c6ccc7c(c6ccc3n4-c3ccccc3)c3cc(N(c4cccc(C)c4)c4cccc6c4oc4ccccc46)ccc3n7-c3ccccc3)ccc2n5-c2ccccc2)c2cccc3c2oc2ccccc23)c1 [Compound 17] | ○ (Evaluation list (○): 0.1 wt. % or more soluble) |
| Cc1cccc(N(c2cccc3c2oc2ccccc23)c2cccc3c2c2c4ccc5c(c4ccc2n3-c2ccccc2)c2c(N(c3cccc4c3c3c6ccc7c(c6ccc3n4-c3ccccc3)c3c(N(c4cccc(C)c4)c4cccc6c4oc4ccccc46)cccc3n7-c3ccccc3)c3cccc4c3c3c6ccc7c(c6ccc3n4-c3ccccc3)c3c(N(c4cccc(C)c4)c4cccc6c4oc4ccccc46)cccc3n7-c3ccccc3)cccc2n5-c2ccccc2)c1 [Compound 19] | ○ (Evaluation list (○): 0.1 wt. % or more soluble) |
